Measured values reported in patent US5436254A, “Carbostyril derivatives” (Otsuka Pharmaceutical Company, Ltd., priority 1989, dated 1995).
pIC50: −log10 of the molar value.

target: V1 receptor (Rattus norvegicus, UniProt P30560); assay: biochemical; type: binding; conditions: not given
Sequence (P30560 whole entry): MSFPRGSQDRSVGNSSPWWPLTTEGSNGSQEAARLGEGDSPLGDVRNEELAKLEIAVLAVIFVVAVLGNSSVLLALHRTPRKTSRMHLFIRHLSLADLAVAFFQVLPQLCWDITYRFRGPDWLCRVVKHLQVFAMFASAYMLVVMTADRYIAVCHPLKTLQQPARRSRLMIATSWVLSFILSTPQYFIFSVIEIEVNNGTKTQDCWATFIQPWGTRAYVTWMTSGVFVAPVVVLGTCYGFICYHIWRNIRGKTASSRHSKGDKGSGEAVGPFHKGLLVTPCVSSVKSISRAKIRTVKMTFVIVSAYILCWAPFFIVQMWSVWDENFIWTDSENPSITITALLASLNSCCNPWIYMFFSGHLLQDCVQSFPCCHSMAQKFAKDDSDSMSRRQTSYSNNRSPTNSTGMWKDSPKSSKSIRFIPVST

First: O=C(c1cnc2ccccc2c1)N1CCC(N2C(=O)CCc3ccccc32)CC1 [Example 117, 1-[1-(3-quinolylcarbonyl)-4-piperidinyl]-3,4-dihydrocarbostyril]
Second: C=CCc1ccc(C(=O)N2CCC(N3C(=O)CCc4ccccc43)CC2)cc1 [Example 111, 1-[1-(4-Allylbenzoyl)-4-piperidinyl]-3,4-dihydrocarbostyril]
The pIC50 of the first is 0.32 log units lower: 5.82 for the first, 6.14 for the second.

CC(=O)Nc1ccc(S(=O)(=O)CCCCCOc2ccc(C(=O)N3CCC(N4C(=O)CCc5ccccc54)CC3)cc2)cc1 [Example 289, 1-{1-(4-[5-(4-Acetylaminophenylsulfonyl)pentyloxy]benzoyl)-4-piperidinyl}-3,4-dihydrocarbostyril] and Nc1ccc(S(=O)(=O)CCCCCOc2ccc(C(=O)N3CCC(N4C(=O)CCc5ccccc54)CC3)cc2)cc1 [Example 286, 1-{1-(4-[5-(4-Aminophenylsulfonyl)pentyloxy]benzoyl)-4-piperidinyl}-3,4-dihydrocarbostyril] are within 0.2 log units of each other in pIC50: 7.00 for the first, 6.82 for the second.

Compared with CC(=O)NCC(CCCCOc1ccc(C(=O)N2CCC(N3C(=O)CCc4ccccc43)CC2)cc1)OC(C)=O (centres unmarked) [Example 176, 1-{1-[4-(5-Acetoxy-6-acetylaminohexyloxy)benzoyl]-4-piperidinyl}-3,4-dihydrocarbostyril], CCN(CC)CC(CCCCOc1ccc(C(=O)N2CCC(N3C(=O)CCc4ccccc43)CC2)cc1)OC(C)=O (centres unmarked) [Example 305, 1-{1-[4-(5-Acetoxy-6-diethylaminohexyloxy)benzoyl]-4-piperidinyl)-3,4-dihydrocarbostyril] is 0.30 log units higher in pIC50: 6.89 for the first, 7.19 for the second.

N[C@@H](Cc1ccc(O)cc1)C(=O)NCCCOc1ccc(C(=O)N2CCC(N3C(=O)CCc4ccccc43)CC2)cc1 [Example 223, 1-[1-{4-[3-(S)-Tyrosylaminopropoxy]benzoyl}-4-piperidinyl]-3,4-dihydrocarbostyril] and NC(=O)[C@H](Cc1ccc(O)cc1)NC(=O)CCCCCOc1ccc(C(=O)N2CCC(N3C(=O)CCc4ccccc43)CC2)cc1 [Example 146, 1-{1-[4-{5-[1-(S)-Carbamoyl-2-(4-hydroxyphenyl)]ethylaminocarbonylpentyloxy}benzoyl]-4-piperidinyl}-3,4-dihydrocarbostyril] are the same in pIC50: 7.14 for the first, 7.14 for the second.

O=C(c1ccc(OCCCNS(=O)(=O)c2ccccc2)cc1)N1CCC(N2C(=O)CCc3ccccc32)CC1 [Example 169, 1-{1-[4-(3-Phenylsulfonylaminopropoxy)benzoyl]-4-piperidinyl}-3,4-dihydrocarbostyril] and Nc1ccc(S(=O)(=O)NCCCCCOc2ccc(C(=O)N3CCC(N4C(=O)CCc5ccccc54)CC3)cc2)cc1 [Example 264, 1-{1-(4-[5-(4-Aminophenylsulfonyl)aminopentyloxy]benzoyl)-4-piperidinyl}-3,4-dihydrocarbostyril] are within 0.2 log units of each other in pIC50: 6.77 for the first, 6.80 for the second.

CN(C)CC(O)CCCCCCOc1ccc(C(=O)N2CCC(N3C(=O)CCc4ccccc43)CC2)cc1 (centres unmarked) [Example 187, 1-{1-[4-(7-Hydroxy-8-dimethylaminooctyloxy)benzoyl]-4-piperidinyl}-3,4-dihydrocarbostyril] and CN(C)CC(O)COCCCCCOc1ccc(C(=O)N2CCC(N3C(=O)CCc4ccccc43)CC2)cc1 (centres unmarked) [Example 191, 1-{1-[4-(5-(2-Hydroxy-3-dimethylaminopropoxy)pentyloxy)benzoyl]-4-piperidinyl}-3,4-dihydrocarbostyril] are within 0.2 log units of each other in pIC50: 7.40 for the first, 7.47 for the second.

Compared with CS(=O)(=O)NCCCOc1ccc(C(=O)N2CCC(N3C(=O)CCc4ccccc43)CC2)cc1 [Example 22, 1-{1-[4-(3-Methylsulfonylaminopropoxy)benzoyl]-4-piperidinyl}-3,4-dihydrocarbostyril], CS(=O)(=O)NCCCCOc1ccc(C(=O)N2CCC(N3C(=O)CCc4ccccc43)CC2)cc1 [Example 28, 1-{1-[4-(4-Methylsulfonylaminobutoxy)benzoyl]-4-piperidinyl}-3,4-dihydrocarbostyril] is 0.33 log units higher in pIC50: 6.47 for the first, 6.80 for the second. The second is the more potent here.

COc1cc(Cl)ccc1C(=O)N1CCC(N2C(=O)CCc3ccccc32)CC1 [Example 54, 1-[1-(2-Methoxy-4-chlorobenzoyl)-4-piperidinyl]-3,4-dihydrocarbostyril] and CNc1ccc(C(=O)N2CCC(N3C(=O)CCc4ccccc43)CC2)c(OC)c1 [Example 48, 1-[1-(2-Methoxy-4-methylaminobenzoyl)-4-piperidinyl]-3,4-dihydrocarbostyril] are within 0.2 log units of each other in pIC50: 6.57 for the first, 6.40 for the second.

Going from CS(=O)(=O)NCCCCCCOc1ccc(C(=O)N2CCC(N3C(=O)CCc4ccccc43)CC2)cc1 [Example 142, 1-{1-[4-(6-Methylsulfonylaminohexyloxy)benzoyl]-4-piperidinyl}-3,4-dihydrocarbostyril] to COC(=O)NCCCCOc1ccc(C(=O)N2CCC(N3C(=O)CCc4ccccc43)CC2)cc1 [Example 27, 1-{1-[4-(4-Methoxycarbonylaminobutoxy)benzoyl]-4-piperidinyl}-3,4-dihydrocarbostyril], the pIC50 falls from 7.00 to 6.57 (0.43 log units). The first is the more potent here.

Compared with CN(CCCCCCOc1ccc(C(=O)N2CCC(N3C(=O)CCc4ccccc43)CC2)cc1)CCc1ccccn1 [Example 266, 1-{1-(4-[6-(N-(2-(2-Pyridyl)ethyl)-N-methylamino)hexyloxy]benzoyl)-4-piperidinyl}-3,4-dihydrocarbostyril], CCN(CC)CCCCCCOc1ccc(C(=O)N2CCC(N3C(=O)CCc4ccccc43)CC2)cc1 [Example 213, 1-{1-[4-(6-Diethylaminohexyloxy)benzoyl]-4-piperidinyl}-3,4-dihydrocarbostyril] is 0.23 log units lower in pIC50: 7.46 for the first, 7.23 for the second. The first is the more potent here.

First: CS(=O)(=O)Oc1ccc(C(=O)N2CCC(N3C(=O)CCc4ccccc43)CC2)cc1 [Example 100, 1-[1-(4-Methylsulfonyloxybenzoyl)-4-piperidinyl]-3,4-dihydrocarbostyril]
Second: NC(=O)OCCCCOc1ccc(C(=O)N2CCC(N3C(=O)CCc4ccccc43)CC2)cc1 [Example 38, 1-{1-[4-(4-Carbamoyloxybutoxy)benzoyl]-4-piperidinyl}-3,4-dihydrocarbostyril]
The pIC50 of the first is 0.52 log units lower: 6.05 for the first, 6.57 for the second. The second is the more potent here.

Going from CN1CCN(CCCOc2ccc(C(=O)N3CCC(N4C(=O)CCc5ccccc54)CC3)cc2)CC1 [Example 136, 1-[1-{4-[3-(4-Methyl-1-piperazinyl)propoxy]benzoyl}-4-piperidinyl]-3,4-dihydrocarbostyril.dioxalate] to CN1CCN(CC(=O)NCCCCCOc2ccc(C(=O)N3CCC(N4C(=O)CCc5ccccc54)CC3)cc2)CC1 [Example 254, 1-{1-(4-[5-(2-(4-Methyl-1-piperazinyl)acetylamino)pentyloxy]benzoyl)-4-piperidinyl}-3,4-dihydrocarbostyril], the pIC50 rises from 6.74 to 7.22 (0.48 log units). The second is the more potent here.

First: CNc1ccc(C(=O)NCCCCOc2ccc(C(=O)N3CCC(N4C(=O)CCc5ccccc54)CC3)cc2)cc1 [Example 126, 1-[1-{4-[(4-Methylaminobenzoyl)aminobutoxy]-benzoyl}-4-piperidinyl]-3,4-dihydrocarbostyril]
Second: CN(CCCOc1ccc(C(=O)N2CCC(N3C(=O)CCc4ccccc43)CC2)cc1)C(=O)c1ccccc1 [Example 92, 1-[1-{4-[3-(N-Methyl-N-benzoylamino)propoxy]benzoyl}-4-piperidinyl)-3,4-dihydrocarbostyril]
The pIC50 of the first is 0.52 log units higher: 6.44 for the first, 5.92 for the second.

Going from CCN(CC)CC(O)CCCCOc1ccc(C(=O)N2CCC(N3C(=O)CCc4ccccc43)CC2)cc1 (centres unmarked) [Example 144, 1-{1-[4-(6-Diethylamino-5-hydroxyhexyloxy)benzoyl]-4-piperidinyl}-3,4-dihydrocarbostyril] to CC(C)NCC(O)CCCCOc1ccc(C(=O)N2CCC(N3C(=O)CCc4ccccc43)CC2)cc1 (centres unmarked) [Example 217, 1-{1-[4-(5-Hydroxy-6-isopropylaminohexyloxy)benzoyl]-4-piperidinyl}-3,4-dihydrocarbostyril], the pIC50 falls from 7.66 to 7.28 (0.38 log units). The first is the more potent here.

O=C(CCCNC(=O)OCc1ccccc1)NCCCCCOc1ccc(C(=O)N2CCC(N3C(=O)CCc4ccccc43)CC2)cc1 [Example 250, 1-{1-(4-[5-(4-Benzyloxycarbonylaminobutyrylamino)pentyloxy]benzoyl)-4-piperidinyl}-3,4-dihydrocarbostyril] and CC(=O)NCC(=O)NCCCOc1ccc(C(=O)N2CCC(N3C(=O)CCc4ccccc43)CC2)cc1 [Example 181, 1-{1-[4-(3-Acetylaminoacetylaminopropoxy)benzoyl]-4-piperidinyl}-3,4-dihydrocarbostyril] are within 0.2 log units of each other in pIC50: 6.49 for the first, 6.64 for the second.

COc1ccc(C(=O)N2CCC(N3C(=O)CCc4ccccc43)CC2)c(OCCCOC(C)=O)c1 [Example 64, 1-{1-[2-(3-Acetoxypropoxy)-4-methoxybenzoyl]-piperidinyl}-3,4-dihydrocarbostyril] and COC(=O)[C@H](CO)NC(=O)CCCOc1ccc(C(=O)N2CCC(N3C(=O)CCc4ccccc43)CC2)cc1 [Example 10, Methyl N-[4-{4-[4-(1,2,3,4-tetrahydro-2-oxo-1-quinolyl)-1-piperidinylcarbonyl]phenoxy}]butanoyl-L-serinate] are within 0.2 log units of each other in pIC50: 6.34 for the first, 6.49 for the second.

First: O=C(O)C1CCN(C(=O)CCCCCOc2ccc(C(=O)N3CCC(N4C(=O)CCc5ccccc54)CC3)cc2)CC1 [Example 274, 1-{1-(4-[5-(4-Carboxy-1-piperidinylcabonyl)pentyloxy]benzoyl)-4-piperidinyl}-3,4-dihydrocarbostyril]
Second: O=C(c1ccc(OCCCC(O)CN2CCCCC2)cc1)N1CCC(N2C(=O)CCc3ccccc32)CC1 (centres unmarked) [Example 188]
The pIC50 of the first is 0.86 log units lower: 6.31 for the first, 7.17 for the second.

O=C(c1ccc(OCCCCC(O)CN2CCN(c3ccccc3)CC2)cc1)N1CCC(N2C(=O)CCc3ccccc32)CC1 (centres unmarked) [Example 205, 1-{1-[4-(5-Hydroxy-6-(4-phenyl-1-piperazinyl)hexyloxy)benzoyl]-4-piperidinyl}-3,4-dihydrocarbostyril] and O=C(c1ccc(OCCCC(O)CN2CCOCC2)cc1)N1CCC(N2C(=O)CCc3ccccc32)CC1 (centres unmarked) [Example 189, 1-{1-[4-(4-Hydroxy-5-morpholinopentyloxy)benzoyl]-4-piperidinyl}-3,4-dihydrocarbostyril] are within 0.2 log units of each other in pIC50: 6.92 for the first, 6.89 for the second.

In the case of CNCC(O)CCCOc1ccc(C(=O)N2CCC(N3C(=O)CCc4ccccc43)CC2)cc1 (centres unmarked) [Example 30, 1-{1-[4-(5-Methylamino-4-hydroxypentyloxy)benzoyl]-4-piperidinyl}-3,4-dihydrocarbostyril], the pIC50 was 6.48.

same assay, conditions: [H]3-Arg-vasopressin 2×10^-10 M, rat liver plasma membrane, 37° C., 10 minutes, pH 8.0; read-out: IC50

Molecule “1-{1-[4-[4-(Benzimidazol-1-yl)thiobutoxy]benzoyl]-4-piperidinyl}-3,4-dihydrocarbostyril [Example 164]” has a pIC50 of 6.11.
